Reference: patent US20240287104A1, “NUCLIDE LABELLED H-TETRAZINES AND USE THEREOF FOR PET AND SPECT PRETARGETED IMAGING AND RADIONUCLIDE THERAPY” (RIGSHOSPITALET, priority 2020, published 2024)

Legend:
[1] = tested on: CC49-TCO pretargeted LS174T tumor xenografts; assay: Pretargeted PET imaging with six 18F-labeled Tz-derivatives (Example 140); type: in vivo, BALB/c nude mice; conditions: PET 1 h p.i., n=3-4 per group
Experimental: Mice (n=3-4 per group) were injected i.v. with either CC49-TCO or 0.9% saline (control experiments). After 72 h, ^18F-labeled Tz (5-10 MBq) were administered and the mice were PET/CT-scanned 1 h p.i. A 3D region of interest (ROI) was created on the entire tumor volume, as well as heart and muscle tissue, and the uptake was quantified as percentage of the injected dose per gram (mean % ID/g), tumor-to-blood (T/B) and tumor-to-muscle (T/M) ratios (FIG. 18A-D). FIG. 18 (A) is a schematic illustration of the pretargeting experiment and the research question: Is there a correlation between the blocking effect and the PET imaging contras. (B) Image-derived mean uptake values are presented as percentage of the injected dose per gram (% ID/g) in tumor. (C) Tumor-to-muscle (T/M) ratios (n=4 mice, except for [^18F]3, n=3). Data is represented as mean±S.D. (*p<0.05 and *** p<0.001). For all groups n=4 mice (except [^18F]3a where n=3) (D) Correlation between the blocking effect of the unlabeled Tz-derivatives 1a, 3a, 19a, 26a, 44a, and 45a and the T/M-ratios for the corresponding ^18F-labeled compounds observed by in vivo pretargeted PET imaging. A strong correlation was found (linear regression: R2=0.78, p=0.019, n=6). Data is represented as mean±S.D. The asterisk indicates significant difference (* p<0.05 and *** p<0.001) when compared to control. (E) Representative images of PET scans 1 h p.i. of the radiolabeled Tz ([^18F]1a, [^18F]3a, [^18F]19a, [^18F]26a, [^18F]44a and [^18F]45a) in pretargeted PET imaging studies (T indicates the position of the tumor).
This difference was also observed for the three ^18F-labeled Tz-derivatives showing specific tumor accumulation ([^18F]3a, [^18F]19a and [^18F]45a), but not for the non-accumulating probes [^18F]1a and [^18F]26a (FIG. 18B). Binding to residual mAb in the blood pool is a frequently reported challenge in pretargeted imaging approaches, and has been addressed by the development of clearing agents.

[2] = tested on: CC49-TCO pretargeted LS174T colon carcinoma xenografts; assay: Pretargeted blocking assay with [111In]Q (Example 140); type: in vivo, BALB/c mice; conditions: as listed in Table 6, value of the unlabeled Tz
Experimental: All animal studies were approved by the Danish Animal Welfare Council, ministry of Justice. Five weeks old female nude BALB/c mice (Charles River, Sulzfeld, Germany) were allowed to acclimatize for one week with access to water and chow ad libitum. Human colon cancer cell line (LS174T; obtained from ATCC) was cultured in minimum essential medium (MEM) supplemented with 10% fetal bovine serum, 1% L-Glutamine, 1% Sodium pyruvate, 1% non-essential amino acids, and 1% penicillin-streptomycin at 37° C. and 5% CO2. Cells were harvested by trypsination at a confluence of 70-90% and subcutaneous tumors were established in the left flank of the 6 weeks old animals by inoculation of ˜5×10^6 LS174T cells resuspended in sterile PBS (100 μL) and allowed to grow for 7-10 days. Tumors were measured using a caliper and the volume calculated using the formula volume=½(length×width^2).
The assay was inspired by receptor blocking experiments and based on the pretargeted imaging approach reported by Rossin et al. An ^111In-labeled Tz [^111In]Q was used in pair with TCO-modified CC49, a non-internalizing mAb that targets the tumor-associated glycoprotein 72 (TAG72), as a benchmark model for the in vivo ligation.
The TCO-modification of CC49 was carried out according to Rossin et al. To study the in vivo ligation performance of Tz-derivatives 1a-45a, BALB/c mice bearing LS174T colon carcinoma xenografts were injected intravenously (i.v.) with CC49-TCO 72 h prior to i.v. injection of the unlabeled Tz, followed by administration of [^111In]Q 1 h later. The animals were euthanized after 22 h and an ex vivo biodistribution was carried out to quantify the tumor uptake of [111 In]Q (FIG. 15). The efficiency of the in vivo ligation of the unlabeled Tz can thus be correlated to a reduced uptake of [111 In]Q (FIG. 15). As a control, blocking was performed using the non-radioactive precursor of [^111In]Q, which blocked ≥99% of the [^111In]Q tumor uptake. A group of CC49-TCO pretreated mice were injected exclusively with [^111In]Q (without blocking) and the determined uptake was used as reference value (100%) to normalize the observed changes in tumor uptake in blocking experiments.
All of these probes include H-phenyl-, pyrimidyl-phenyl-, or bis(pyridyl)-Tz-scaffolds with second-order rate constants for the reaction with TCO of >70 M 1 s 1 (1,4-dioxane, 25° C.) or of >39,000 M 1 s 1 (DPBS, 37° C.) (cf. Table 5). Next, potential correlations between the blocking effect, the c log D7.4 and the TPSA, as well as IEDDA reactivity were investigated. […] However, a distinct relationship between c log D7.4 values and the blocking effect was evidently observed when comparing Tz-derivatives with similar IEDDA reactivity (FIG. 16C, 16D). For all Tz-scaffolds a Pearson's correlation coefficient >0.78 was found. […] The blocking effect of non-radiolabeled Tz was determined as the change in tumor uptake of [111 In]Q 22 h p.i. Each Tz was administered 1 h prior to [111 In]Q and the uptake normalized to a group of animals were no blocking was performed (control). Data represent mean from n=3 mice/group. Correlation of blocking effect and c log D7.4 for Tz-derivatives with similar IEDDA reactivity (as shown in FIGS. 16C and D) where data was fitted to exponential growth equation Y=Y0 ekx (dotted line). The statistical analysis of the correlation between tumor uptake and c log D7.4 for the different groups of Tz-derivatives (shown in Table 7) was obtained by Pearson's correlation coefficient (r) which describes the goodness of fit between the blocking effect and c log D7.4. Notes: a Reaction of representative Tz with unsubstituted TCO; “Reaction of representative Tz with TCO-PEG4;” Measured for Tz-scaffold A only; n.d.=not determined.

[3] = In vivo stability of 18F-labeled Tz-derivatives, plasma radio-TLC; conditions: naïve mice, n=4
From the text: In order to verify that the results from the blocking study can be used to predict the outcome for in vivo PET imaging, 18 Tz-derivatives from the first library were selected. The selection was based on criteria such as, the possibility for ^18F-labeling, structural diversity, lipophilicities and distinct IEDDA reactivities. For this purpose, we decided to use an indirect radiolabeling approach, enabling the combination of different building blocks to rapidly access a series of ^18F-labeled Tz-derivatives. The Cu-catalyzed azide-alkyne [3+2] cycloaddition (CuAAC) appeared to be suitable in this respect, as it allows for fast and efficient radiolabeling under mild reaction conditions. Six precursor Tz-alkynes (I-VI) were prepared and reacted with three ^18F-labeled azides ([^18F]Az1-Az3) to obtain 18 different [^18F]Tz-probes (FIG. 17). Notes to Table 6 showing the results obtained: ^aRCYs were decay-corrected to the starting amount of radioactivity for the respective azide or *RCY was determined starting from ^18F—. ^bMolar activities (Am) differ due to the use of different cyclotrons. ^cRCP was determined by radio-HPLC. ^dIn vivo stability of [^18F]Tz was assessed by determining the fraction (%) of radioactivity corresponding to intact compound after 30 min (n=4) from radio-TLC analysis. n.d.=not determined.
Next, we investigated whether there is a relationship between the in vivo stability of Tz-derivatives and their blocking ability. Fifteen ^18F-labeled tetrazines were studied in naïve mice. Blood was collected after 30 min, and plasma samples were analyzed by radio-TLC for stability assessment (Table 6). […] Consequently, six [^18F]Tz ([^18F]1a, [^18F]3a, [^18F]19a, [^18F]26a, [^18F]44a, and [^18F]45a) were selected for further in vivo studies solely based on the IEDDA-reactivity (second-order rate constants between 72 and 230 M^−1s^−1) and lipophilicity (c log D7.4 between −1.53 and 2.10). These radiolabeled Tz-probes were used to investigate if the results from the blocking assay can be translated to pretargeted PET imaging at tracer doses.

[4] = Second order rate constants from stopped-flow measurements with TCO at 25° C. in ACN (Table 1); type: physicochemical; conditions: second order rate constants estimated from stopped-flow measurements of the alkyne-Tz building block with TCO at 25° C. in ACN
Experimental: In Table 1, the following letters in brackets defines the following: [a] Radiochemical conversion (RCC) and Radiochemical purity (RCP) were determined by radio-HPLC (n=3); [b] Radiochemical yield (RCY) was decay corrected to the starting amount of radioactivity received from the cyclotron and the isolated product without formulation step (n=3); [c] Second order rate constants estimated from stopped-flow measurements of the alkyne-Tz building block with TCO at 25° C. in CAN; [d] No product formed or could not be isolated.
Reaction kinetics of the Tz-derivatives were determined by pseudo-first order measurements in dioxane at 25.0±0.1° C. or PBS at 27.0±0.1° ° C. in a SX20 stopped flow photometer (Applied Photophysics). The pseudo first order rate constant was determined by linearization of the decay curve followed by linear fitting. The second order rate constant was calculated from the pseudo-first order rate constant.

SMILES | Tumor accumulation in mice pretreated with CC49-TCO compared to control animals [1] | Blocking effect (%) (of unlabeled Tz) [2] | In vivo stability (% intact [^18F]Tz after 30 min) [3] [%] | k2 [4] [M⁻¹ s⁻¹]
[18F]CCn1cc(COc2ccc(-c3nncnn3)cc2)nn1 [[^18F]1a] | no significant difference in tumor uptake | 9 | 90 | 
[18F]c1ccc(-c2nncnn2)cc1 [[^18F]Y] |  |  |  | 159
[18F]c1cccc(-c2nncnn2)c1 [[^18F]-9] |  |  |  | 222
Cc1nnc(-c2ccc(OCc3cn(CC[18F])nn3)cc2)nn1 [[^18F]5a] |  | 10 | 26 | 
[18F]c1ccc(-c2nnc(-c3ccccn3)nn2)cc1 [[^18F]T] |  |  |  | 106
O=C(Nc1ccc(-c2nnc(-c3ccccn3)nn2)nc1)c1ccc(-c2cn(CC[18F])nn2)cc1 [[^18F]25a] |  | 16 |  | 
O=C(CCc1cn([C@@H]2O[C@H](C[18F])[C@@H](O)[C@H](O)[C@H]2O)nn1)Nc1ccc(-c2nnc(-c3ccccn3)nn2)nc1 [[^18F]45a] | significantly increased tumor accumulation | 99 | 42 | 
O[C@@H]1[C@@H](O)[C@H](n2cc(COc3ccc(-c4nncnn4)cc3)nn2)O[C@H](C[18F])[C@H]1O [[^18F]3a] | significantly increased tumor accumulation | 81 | 76 | 
O[C@@H]1[C@@H](O)[C@H](n2cc(-c3ccc(-c4nncnn4)cc3)nn2)O[C@H](C[18F])[C@H]1O [[^18F]19a] | significantly increased tumor accumulation | 76 | 87 | 
[18F]CCn1cc(-c2ccc(-c3nncnn3)cc2)nn1 [[^18F]17a] |  | 0 | 32 | 
O=C(Nc1ccc(-c2nnc(-c3ccccn3)nn2)nc1)c1ccc(-c2cn([C@@H]3O[C@H](C[18F])[C@@H](O)[C@H](O)[C@H]3O)nn2)cc1 [[^18F]27a] |  | 51 |  | 
[18F]c1ccc(-c2nnc(-c3ccccc3)nn2)cc1 [[^18F]E] |  |  |  | 18
Cc1nnc(-c2ccc(OCc3cn([C@@H]4O[C@H](C[18F])[C@@H](O)[C@H](O)[C@H]4O)nn3)cc2)nn1 [[^18F]7a] |  | 3 | 60 | 
O=C(CCc1cn(CC[18F])nn1)Nc1ccc(-c2nnc(-c3ccccn3)nn2)nc1 [[^18F]43a] |  | 67 | 10 | 
O[C@@H]1[C@@H](O)[C@H](n2cc(COc3ccc(-c4nnc(-c5ccccn5)nn4)cc3)nn2)O[C@H](C[18F])[C@H]1O [[^18F]14a] |  | 24 | 43 | 
[18F]c1cccc(-c2nnc(-c3ccccc3)nn2)c1 [[^18F]R] |  |  |  | 30
[18F]CCn1cc(COc2ccc(-c3nnc(-c4ccccn4)nn3)cc2)nn1 [[^18F]12a] |  | 0 | 10 | 
Cc1nnc(-c2ccc([18F])cc2)nn1 [[^18F]Tz1] |  |  |  | 2.25
[18F]c1ccc(-c2nnc(-c3ccccn3)nn2)nc1 [[^18F]U] |  |  |  | 206
